Laboratory results: PubChem BioAssay (NCI)
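Dose response: 5 concentrations. Exposure: 48 h. Format: 96-well plates. Endpoint: linear interpolation; highest concentration if not reached. GI50: concentration for 50% inhibition of growth. TGI is the concentration that stops growth completely.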

What was measured:
Assay in all cases: inhibition of tumour cell growth, NCI panel, 48 h
MALME-3M melanoma = test system: MALME-3M melanoma
SNB-75 CNS = test system: SNB-75 CNS
LOX IMVI melanoma = test system: LOX IMVI melanoma
HOP-92 NSCLC = test system: HOP-92 NSCLC
SW-620 colon = test system: SW-620 colon
NCI-H226 lung = test system: NCI-H226 lung
MDA-MB-435 = test system: MDA-MB-435
T-47D breast = test system: T-47D breast
EKVX NSCLC = test system: EKVX NSCLC
SF-295 CNS = test system: SF-295 CNS
OVCAR-4 ovarian = test system: OVCAR-4 ovarian
IGROV1 ovarian = test system: IGROV1 ovarian
BT-549 breast = test system: BT-549 breast
MDA-MB-231 breast = test system: MDA-MB-231 breast
SK-MEL-28 melanoma = test system: SK-MEL-28 melanoma
KM12 colon = test system: KM12 colon
PC-3 prostate = test system: PC-3 prostate
SN12C renal = test system: SN12C renal
HL-60(TB) leukemia = test system: HL-60(TB) leukemia
DU-145 prostate = test system: DU-145 prostate
SF-268 CNS = test system: SF-268 CNS
A498 renal = test system: A498 renal
UACC-257 melanoma = test system: UACC-257 melanoma
CCRF-CEM leukemia = test system: CCRF-CEM leukemia
UACC-62 melanoma = test system: UACC-62 melanoma
HT29 colon = test system: HT29 colon
COLO 205 colon = test system: COLO 205 colon
M14 melanoma = test system: M14 melanoma
RXF 393 renal = test system: RXF 393 renal
K-562 leukemia = test system: K-562 leukemia
SF-539 CNS = test system: SF-539 CNS
SK-OV-3 ovarian = test system: SK-OV-3 ovarian
SK-MEL-2 melanoma = test system: SK-MEL-2 melanoma
CAKI-1 renal = test system: CAKI-1 renal
HCC-2998 colon = test system: HCC-2998 colon
OVCAR-8 ovarian = test system: OVCAR-8 ovarian
MCF7 breast = test system: MCF7 breast
NCI-H23 lung = test system: NCI-H23 lung
UO-31 renal = test system: UO-31 renal
SK-MEL-5 melanoma = test system: SK-MEL-5 melanoma
SNB-19 CNS = test system: SNB-19 CNS
NCI-H522 lung = test system: NCI-H522 lung
NCI-H460 lung = test system: NCI-H460 lung
OVCAR-3 ovarian = test system: OVCAR-3 ovarian
A549 NSCLC = test system: A549 NSCLC
HS 578T breast = test system: HS 578T breast
OVCAR-5 ovarian = test system: OVCAR-5 ovarian
TK-10 renal = test system: TK-10 renal
MOLT-4 leukemia = test system: MOLT-4 leukemia
786-0 renal = test system: 786-0 renal
U251 CNS = test system: U251 CNS
ACHN renal = test system: ACHN renal
HCT-15 colon = test system: HCT-15 colon
NCI/ADR-RES ovarian = test system: NCI/ADR-RES ovarian
RPMI-8226 leukemia = test system: RPMI-8226 leukemia
HOP-62 NSCLC = test system: HOP-62 NSCLC
HCT-116 colon = test system: HCT-116 colon

N#Cc1cc(-c2ccnc(Nc3ccc(NC(=O)CCl)cc3)n2)ccc1N1CCCC1
GI50 (MALME-3M melanoma): 1.47 µM | TGI (MALME-3M melanoma): 6.05 µM | GI50 (SNB-75 CNS): 1.12 µM | TGI (SNB-75 CNS): 7.72 µM | GI50 (LOX IMVI melanoma): 0.45 µM | TGI (LOX IMVI melanoma): 0.865 µM | GI50 (HOP-92 NSCLC): 4.22 µM | TGI (HOP-92 NSCLC): > 25 µM | GI50 (SW-620 colon): 0.815 µM | TGI (SW-620 colon): 2.63 µM | GI50 (NCI-H226 lung): 0.723 µM | TGI (NCI-H226 lung): 1.66 µM | GI50 (MDA-MB-435): 0.716 µM | TGI (MDA-MB-435): 2.7 µM | GI50 (T-47D breast): 5.1 µM | TGI (T-47D breast): 11 µM | GI50 (EKVX NSCLC): 22.6 µM | TGI (EKVX NSCLC): > 25 µM | GI50 (SF-295 CNS): 5.11 µM | TGI (SF-295 CNS): 13.9 µM | GI50 (OVCAR-4 ovarian): 3.49 µM | TGI (OVCAR-4 ovarian): 10.5 µM | GI50 (IGROV1 ovarian): 0.514 µM | TGI (IGROV1 ovarian): 1.18 µM | GI50 (BT-549 breast): 0.708 µM | TGI (BT-549 breast): 2.25 µM | GI50 (MDA-MB-231 breast): 2.82 µM | TGI (MDA-MB-231 breast): 10.1 µM | GI50 (SK-MEL-28 melanoma): 4.28 µM | TGI (SK-MEL-28 melanoma): 8.54 µM | GI50 (KM12 colon): 3.84 µM | TGI (KM12 colon): 10.2 µM | GI50 (PC-3 prostate): 2.68 µM | TGI (PC-3 prostate): 13.9 µM | GI50 (SN12C renal): 0.818 µM | TGI (SN12C renal): 4.59 µM | GI50 (HL-60(TB) leukemia): 5.1 µM | TGI (HL-60(TB) leukemia): > 25 µM | GI50 (DU-145 prostate): 4.17 µM | TGI (DU-145 prostate): 16.5 µM | GI50 (SF-268 CNS): 1.38 µM | TGI (SF-268 CNS): 9.4 µM | GI50 (A498 renal): 3.88 µM | TGI (A498 renal): 9.92 µM | GI50 (UACC-257 melanoma): 5.04 µM | TGI (UACC-257 melanoma): 11.6 µM | GI50 (CCRF-CEM leukemia): 0.738 µM | TGI (CCRF-CEM leukemia): > 25 µM | GI50 (UACC-62 melanoma): 2.22 µM | TGI (UACC-62 melanoma): 5.99 µM | GI50 (HT29 colon): 0.68 µM | TGI (HT29 colon): 4.8 µM | GI50 (COLO 205 colon): 2.87 µM | TGI (COLO 205 colon): 7.17 µM | GI50 (M14 melanoma): 0.646 µM | TGI (M14 melanoma): 1.49 µM | GI50 (RXF 393 renal): 0.779 µM | TGI (RXF 393 renal): 2.69 µM | GI50 (K-562 leukemia): 0.711 µM | TGI (K-562 leukemia): > 25 µM | GI50 (SF-539 CNS): 2.81 µM | TGI (SF-539 CNS): 5.9 µM | GI50 (SK-OV-3 ovarian): 2.9 µM | TGI (SK-OV-3 ovarian): 6.97 µM | GI50 (SK-MEL-2 melanoma): 0.933 µM | TGI (SK-MEL-2 melanoma): 2.92 µM | GI50 (CAKI-1 renal): 0.875 µM | TGI (CAKI-1 renal): 6.77 µM | GI50 (HCC-2998 colon): 4.96 µM | TGI (HCC-2998 colon): 9.14 µM | GI50 (OVCAR-8 ovarian): 1.15 µM | TGI (OVCAR-8 ovarian): > 25 µM | GI50 (MCF7 breast): 0.809 µM | TGI (MCF7 breast): 3.64 µM | GI50 (NCI-H23 lung): 0.878 µM | TGI (NCI-H23 lung): 3.72 µM | GI50 (UO-31 renal): 1.07 µM | TGI (UO-31 renal): 4.29 µM | GI50 (SK-MEL-5 melanoma): 1.08 µM | TGI (SK-MEL-5 melanoma): 3.72 µM | GI50 (SNB-19 CNS): 4.87 µM | TGI (SNB-19 CNS): 16.7 µM | GI50 (NCI-H522 lung): 0.378 µM | TGI (NCI-H522 lung): 0.831 µM | GI50 (NCI-H460 lung): 2.04 µM | TGI (NCI-H460 lung): 6.4 µM | GI50 (OVCAR-3 ovarian): 2.9 µM | TGI (OVCAR-3 ovarian): 7.59 µM | GI50 (A549 NSCLC): 5.27 µM | TGI (A549 NSCLC): 14.7 µM | GI50 (HS 578T breast): 2.22 µM | TGI (HS 578T breast): > 25 µM | GI50 (OVCAR-5 ovarian): 5.4 µM | TGI (OVCAR-5 ovarian): 12.7 µM | GI50 (TK-10 renal): 0.894 µM | TGI (TK-10 renal): 3.48 µM | GI50 (MOLT-4 leukemia): 2.42 µM | TGI (MOLT-4 leukemia): > 25 µM | GI50 (786-0 renal): 0.649 µM | TGI (786-0 renal): 6.14 µM | GI50 (U251 CNS): 3.35 µM | TGI (U251 CNS): 8.09 µM | GI50 (ACHN renal): 1.86 µM | TGI (ACHN renal): 6.6 µM | GI50 (HCT-15 colon): 0.734 µM | TGI (HCT-15 colon): 3 µM | GI50 (NCI/ADR-RES ovarian): 1.14 µM | TGI (NCI/ADR-RES ovarian): > 25 µM | GI50 (RPMI-8226 leukemia): 1.7 µM | TGI (RPMI-8226 leukemia): 22.7 µM | GI50 (HOP-62 NSCLC): 4.64 µM | TGI (HOP-62 NSCLC): 18.8 µM | GI50 (HCT-116 colon): 0.684 µM | TGI (HCT-116 colon): 1.88 µM
